Experiments:
[1] = test system: Macrophages from healthy donors; test: Cytokine/chemokine secretion from macrophages (cytometric bead assay); assay type: cell-based, human
Description: FIG. 10: Interferon-gamma secretion (as measured by cytometric bead assay) from macrophages stimulated with indicated compound for 48 h.
FIG. 11: Chemokine RANTES secretion (as measured by cytometric bead assay) from PBMC or macrophages stimulated with indicated compound for 48 h.
FIG. 12: IL12p70 secretion (as measured by cytometric bead assay) from PBMC or macrophages stimulated with indicated compound for 48 h.
(§1) FIG. 13: IL1b secretion (as measured by cytometric bead assay) from PBMC, macrophages or CD4 T cells stimulated with indicated compound for 48 h.
Study 9: Macrophages from healthy donors where exposed to compounds 1 or 2 for 48 hours. […] Compound 1 is therefore able to induce IFN-gamma secretion in macrophages from healthy donors.
Study 10: PBMCs and macrophages where exposed to compounds 1 or 2 for 2 days (FIG. 11).
Study 11: PBMCs and macrophages where exposed to compounds 1 and 2 for 2 days.
(§2) Study 12: PBMCs, macrophages and CD4+ T cells where exposed to compounds 1 and 2 for 2 days.

C57bl/6 mice [2] = test: CD25 expression in blood of mice after i.v. injection; assay type: in vivo, mouse; conditions: highest dose of 5 mg/kg, 24 h
Description: FIG. 14: % CD25 high cells in blood of C57bl/6 mice injected 24 h previously with indicated dose of compound 1. CD25 expression was measured by flow cytometry.
Study 13: Compound 1 was administered i.v. to C57bl/6 mice at 0.165 mg/kg to 5 mg/kg. CD25+ cell abundance was increased in animals receiving the highest dose of 5 mg/kg (FIG. 14), as was body weight in the same group (not shown).

CD4+ T cells = test: IL-1beta secretion from CD4+ T cells (cytometric bead assay); assay type: cell-based, human; conditions: 2 days
Description: as §1, §2

T cells in PBMC = test: T cell proliferation with IL-2, Cell Trace Violet, flow cytometry; assay type: cell-based, human; conditions: 6 days, in the presence of IL-2
Description: FIG. 7. CD4 T cell proliferation after 6 days stimulation with compound 1, measured with proliferation dye Celltrace violet (Invitrogen) and flow cytometry. Untreated cells (UNT) or compound A were used as controls.
Study 6: PBMC were stimulated with compound 1 and cultured in RPMI media for 6 days in the presence of IL-2 (Miltenyi Biotechnologies) and Cell Trace Violet Dye (Invitrogen). Proliferation was measured with flow cytometry.

[3] = test system: CMV specific CD8+ T cells; test: CMV cultures: phenotype of CMV specific CD8+ T cells; assay type: cell-based, human; conditions: PBMCs from CMV infected donors, CMV antigen, 6 days
Description: Human peripheral blood mononuclear cells (PBMCs) were purified from healthy CMV positive donors with Ficoll-Paque density centrifugation. The PBMC were labeled with 5 μM celltrace violet (Invitrogen) in PBS for 15 minutes and then washed with complete cell culture medium. The labeled PBMC was cultured in the presence of a peptide library spanning the CMV pp65 protein (1 μg peptide/ml, JPT) in AIM-V media (Invitrogen) supplemented with L-glutamine, Sodium pyruvate (Sigma), 10% fetal bovine serum, 100 μg/mL penicillin and 100 μg/mL streptomycin (Hyclone) for 6-8 days in 37° C., 5% CO2. Cell proliferation was assessed with flow cytomtery using a BD FACS Canto II flow cytometer.
Study 7: CMV virus specific T cell proliferation was also affected by compound 1. […] CD127 is crucial for T cell homeostasis, differentiation and function, and reduced expression correlates with disease severity in HIV and other chronic viral diseases (Crawley et al. 2012).

C57bl/6 mice [4] = test: MHC class I expression on CD11b+ splenocytes of mice after i.v. injection; assay type: in vivo, mouse; conditions: spleen 24 h later
Description: FIG. 15: % MHC class I high CD11b+ cells in spleen of 3 individual C57bl/6 mice injected 24 h previously with indicated compound. MHC class I and CD11 b expression was measured by flow cytometry.
Study 14: Compound 1 or A was administered i.v. to C57bl/6 mice.

[5] = test system: PBMCs from CMV infected donors; test: IFN-gamma secretion from PBMCs of CMV infected donors with CMV antigen (cytometric bead assay); assay type: cell-based, human; conditions: 3 days
Excerpt: FIG. 9: Interferon-gamma secretion (as measured by cytometric bead assay) from PBMCs (from a CMV+ donor) grown with CMV peptides in the presence or absence of compound 1 or A for […].
Study 8: PBMCs from CMV infected donors cultured in the presence of CMV antigen where either untreated or exposed to compound 1 or compound 2 for 3 days.

In the case of `CC[C@H]1OC(=O)[C@H](C)[C@@H](O[C@H]2C[C@@H](N(C)C)[C@H](O)[C@@H](C)O2)[C@H](C)[C@@H](O)[C@](C)(O)C[C@@H](C)CN(C)[C@H](C)[C@@H](O)[C@]1(C)O` [Compound 1], the “IL-1beta secretion, macrophages” value ([1]; 2 days) is reported as “increased”, the “IL-12p70 secretion, macrophages” value ([1]; 2 days) is reported as “secreted IL-12p70” and the “expression of RANTES in macrophages” value ([1]; 2 days) is reported as “induced a high expression”. For the same compound, the “IFN-gamma secretion, macrophages” value ([1]; 48 hours) was “secreted IFN-gamma”, the “CD25+ cell abundance” value (C57bl/6 mice [2]) was “increased” and the “IL-1beta secretion, CD4+ T cells” value (CD4+ T cells) was “no IL-1beta was induced”. For the same compound, the “cytokine driven proliferation profile of T cells” value (T cells in PBMC) was “altered cytokine driven proliferation profile”, the “expression of IL-7 receptor α (CD127) on activated CMV specific CD8+ T cells” value [3] was “increased expression” and the “splenocyte cells (CD11b+) with high MHC I expression” value (C57bl/6 mice [4]) was “induced an increase”. For the same compound, the “IFN-gamma secretion, PBMCs with CMV antigen” value [5] was “induced secretion of high levels of IFN-gamma”.

Source: patent US11059845B2, “Immune stimulating macrolides” (ISR IMMUNE SYSTEM REGULATION HOLDING AB (PUBL), priority 2017, dated 2021)
